Results: US5276177A, “Physiologically active substance” (Matsuno; Tetsuya, priority 1991, dated 1994)
In brackets after ≈: the same amount, converted by molar mass.

Columns and labels:
cultured tumor cells = experiment: antitumor activity against cultured tumor cells (summary statement); assay type: cell-based
Experimental: (§1) Growth inhibition to Hela S3 cells
(§2) 0.1 Milliliter of a test compound properly diluted with an MEM culture containing 10% fetal bovine serum and 2 mM of glutamine was placed in each of 96 wells of a microtiter plate. Then, trypsinized HeLa S3 cells (ATCC HTB22) were adjusted with the above culture to form a solution containing 3×10^4 cells/ml, and 0.05 ml of the solution was added to each well.
(§3) The above plate was cultured in a carbonic acid gas incubator at 37° C. for 72 hours, and then culture supernatants were removed. 0.1 Milliliter of a culture medium containing 0.02% Neutral Red was added to each well, and the plate was cultured in the carbonic acid gas incubator at 37° C. for 1 hour to stain the cells. After culture supernatants were removed, the remainders were once washed with a physiological saline solution. Then, the dyestuff was extracted with 0.001N hydrochloric acid/30% ethanol, and the absorbance at 550 nm was measured with a microplate reader. In comparison between the absorbance of untreated cells and the absorbance of cells treated with the known concentration of the test compound, the growth inhibition ratio of the cells was calculated on the basis of the following equation. [formula] A: Absorbance of cells treated with the compound B: Absorbance of a well containing no cells
(§4) C: Absorbance of untreated cells […]

Solubility = assay type: physicochemical
growing cells = experiment: cell cycle analyzed with a flow cytometer; assay type: cell-based
HeLa S3 cells = experiment: Growth inhibition to Hela S3 cells (Neutral Red staining, 72 hours); assay type: cell-based; conditions: Homo sapiens, 37° C., MEM with 10% fetal bovine serum, 550 nm
Experimental: as §1, §2, §3, §4

[1] = Experientia 44, 230, (1988); cited from earlier work

CC(=CC(=O)O)CC[C@@]1(C)[C@H](CO)CC[C@@]2(C)C(C)=CCC[C@H]12 [novel physiologically active substance]
antitumor activity (cultured tumor cells): exhibits antitumor activity against cultured tumor cells
Solubility (Solubility; in acidic water): Sparingly soluble in acidic water
Solubility (Solubility; in methanol, ethyl acetate, chloroform and DMSO): Soluble in methanol, ethyl acetate, chloroform and DMSO
cell cycle effect (growing cells): terminated the growing cells at S phase and destroyed them
IC50 (HeLa S3 cells): 87 µg/mL (≈ 271 µM)

O=C(/C=C/c1ccc(O)c(O)c1)OCCc1ccccc1 [phenetyl cafeate]
antitumor activity [1]: has antitumor activity
